Converted amounts (≈) assume the structure as drawn. Like-named read-outs stand apart in the source and are kept apart here.
Columns and labels:
[1] = system: C. albicans; assay: Antifungal susceptibility (microdilution MIC), C. albicans; type: cell-based, Candida albicans
Method: (§1) The antifungal activity of protein kinase inhibitors was determined using the Clinical and Laboratory Science Institute microdilution protocol M-27A2. Biofilm antifungal activity was determined using the protocol of Pierce et al. and is reported as MIC50S (Pierce et al., Nat. Protoc. 3:1494-1500 (2008)). Disk diffusion assays were performed as described previously (Roelants et al., Microbiology 150:3289-304 (2004)).
To identify PKIs that disrupt yeast cell wall integrity, a four-part screening strategy as outlined in FIG. 1A was designed. The primary screen in the approach detects molecules that cause yeast cells to lyse, a characteristic phenotype of yeast cell wall damage, by use of an assay that detects the release of adenylate kinase (AK) to the growth medium as a reporter of yeast cell lysis. Previously it was shown that the AK assay in HTS format can detect as few as 500 lysed yeast cells in a sample of 10^5 cells (Didone et al., Nat. Protocol. 5:1107-14 (2010)). PKIs that cause yeast cells lysis (hits) were then re-confirmed by AK dose-response assays and tested for in vitro antifungal activity against the human fungal pathogen C. albicans using standard microdilution susceptibility testing. Last, to select PKIs specific for the CWI signaling pathway, the set of hits were tested for their ability to block the activation of a transcriptional reporter of the CWI-signaling pathway. […]

[2] = system: C. albicans clinical reference strain SC5314; assay: Adenylate kinase (AK) release assay of yeast cell lysis; type: cell-based, Candida albicans; parameters: dose or concentration left out as unconfirmed; settings: extracellular AK activity relative to DMSO-treated cells
Method: AK assays were performed according to a recently published protocol (Didone et al., Nat. Protocol. 5:1107-14 (2010)) using the 96-well plate version using the Toxi-Light Assay kit (Lonza; Basel, Switzerland). Luminescence was measured using a SpectraMax plate reader (Molecular Devices; Sunnyvale, Calif.). […] To identify PKIs that disrupt yeast cell wall integrity, a four-part screening strategy as outlined in FIG. 1A was designed. The primary screen in the approach detects molecules that cause yeast cells to lyse, a characteristic phenotype of yeast cell wall damage, by use of an assay that detects the release of adenylate kinase (AK) to the growth medium as a reporter of yeast cell lysis. […] Last, to select PKIs specific for the CWI signaling pathway, the set of hits were tested for their ability to block the activation of a transcriptional reporter of the CWI-signaling pathway. To rapidly survey a sample of well-characterized PKIs, the commercially available InhibitorSelect collection, a library of 80 PKIs with diverse mechanistic and structural characteristics, was utilized. C. albicans clinical reference strain SC5314 was screened against the InhibitorSelect library for molecules that caused a release of AK into the growth medium.

[3] = system: C. neoformans; assay: Antifungal susceptibility (microdilution MIC), C. neoformans; type: cell-based, Cryptococcus neoformans
Method: as §1
(FIG. 3A). […] Since the echinocandin class of cell wall-targeted 1,3-β-glucan synthase inhibitors is not active against C. neoformans, this represents one of the few cell wall-targeted molecules with activity against this important pathogen.

[4] = system: C. albicans strain SC5314; assay: Mouse model of candidiasis, kidney fungal burden; type: in vivo; settings: BALB/c mice, 100 mg/kg per day by oral gavage in peanut oil, 2 days, C. albicans SC5314 i.v.
Method: (§2) YPD cultures were incubated at 37° C. for 30 hours in the presence of the indicated drugs and combinations. Aliquots were diluted and plated on YPD at 30° C. to determine inoculum. […] BALB/c mice (n=5 per group) were treated with 100 mg/kg OSU-03012 per day by oral gavage after inoculation with C. albicans SC5314 by tail vein injection for 2 days and kidney fungal burden was determined.
On the day of inoculation (DO), BALB/c mice were restrained in a mechanical restrainer and inoculated with C. albicans strain SC5314 suspended in saline (1×10^5 cfu/animal) via lateral tail vein injection. OSU-03012 (100 mg/kg) in peanut oil was given by gavage to half the animals (n=5) and peanut oil alone was given to the other half of animals on the day of inoculation and on the following day. ON D2, the animals were sacrificed and the kidneys harvested. The kidneys were homogenized and dilutions were plated on yeast peptone dextrose plates containing gentamicin and vancomycin. The plates were incubated at 30° C. for one day and colony forming units per kidney were determined by standard methods. Differences between treatment and no treatment groups were analyzed by Student's t test with a statistically significant effect defined as P<0.05.

[5] = system: C. albicans biofilms; assay: Biofilm XTT reduction assay of metabolic activity; type: cell-based, Candida albicans; settings: at higher concentrations than those active against planktonic cells
Method: Filled circles indicate growth and clear circles indicate no detectable turbidity. The lowest concentration of drug resulting in no growth is defined as the MIC. […] Metabolic activity was determined using the XTT assay.
SC5314 biofilms were generated in microtiter plates for 48 hours and treated with OSU-03012 for 24 hours before being subject to an XTT reduction assay of metabolic activity.
as §1

[6] = system: human cells; settings: cited from earlier work
[7] = system: C. neoformans H99; assay: Time-kill evaluation in combination with fluconazole; type: cell-based, Cryptococcus neoformans; settings: C. neoformans H99, YPD, 37° C., 30 hours
Method: as §2
To determine if the combination of OSU-03012 and fluconazole was fungicidal, overnight cultures of C. neoformas strain H99 were diluted to 1.5×10^4 cells/ml in yeast peptone dextrose containing either: dimethyl sulfoxide (DMSO) (1% final concentration); fluconazole (2 μg/ml/1% DMSO); OSU-03012 (2 μg/ml/1% DMSO); or OSU-03012 and fluconazole (2 μg/ml each/1% DMSO). The cultures were incubated at 37° C. for 30 hours. Aliquots were removed at 0, 3, 6, 24, and 30 hours; diluted and plated on yeast peptone dextrose plates. The plates were incubated at 30° C. for 48 hours and colony forming units per ml determined by standard methods. It was determined that the combination of OSU-03012 and fluconazole was fungicidal (FIG. 9A).

[8] = system: CWI pathway reporter Rlm1-lacZ; assay: β-Galactosidase CWI pathway reporter assay (Rlm1-lacZ); type: cell-based; settings: sub-inhibitory concentrations (1/2 MIC), S. cerevisiae
Method: Bars indicate mean fold change in Miller units of β-galactosidase activity relative to logarithmic phase cells without calcofluor or PKI. Error bars indicate standard deviation of three independent trials performed in triplicate. […] The percentage of cells with PI uptake was determined by fluorescence.
Logarithmic phase S. cerevisiae (BY4741) cells harboring the pRLM1-lacZ plasmid were transferred to a 96-well plate, and treated with Calcofluor white ([…])+/−protein kinase inhibitor at sub-inhibitory concentrations (1/2MIC). The cells were incubated at room temperature for 5 hours and processed for β-galactosidase activity using the ThermoScientific Yeast β-galactosidase kit according to the manufacturer's instructions (Pierce; Rockford, Ill.). β-galactosidase activity was determined by measuring OD420 using a SpectraMax Plate reader (Molecular Devices) and expressed as fold change in Miller units (nmole/mg/min) relative to untreated cells. Each experiment was performed in duplicate with three independent isolates.
The novel, antifungal PKIs identified in the primary screen were evaluated for their ability to block CWI pathway signaling using a reporter construct that contains two copies of the consensus binding site for the CWI-pathway-regulated transcription factor Rlm1 fused to the β-galactosidase gene (Jung et al., Mol. Microbiol. 46:781-9 (2002)). […]

[9] = system: C. albicans; assay: Checkerboard interaction assay (FIC); type: cell-based, Candida albicans
Method: This assay allows one to compare the activity of a molecule alone and in combination with another molecule by generating a fractional inhibitory concentration (FIC). FIC for two drugs (A & B) is calculated as follows: […]. FIC values less than 0.5 are considered synergistic; between 0.5 and 1 are additive; between 1-2 are indifferent; and above 2 are antagonistic. […] Therefore, KP-372-1 is not synergistic with either agent.

[10] = C. albicans growth assay, Table 1
[11] = Candida albicans, C. albicans growth assay, Table 1, read-out: MIC

With `CC[n+]1c(/C=C/N(C)c2ccccc2)n(-c2ccccc2)c2ccc(-c3nc4ccccc4s3)cc21.[I-]` [Akt IV] as the compound, how does the MIC [1, 10] read?
Its MIC is 9 µg/mL.

What about the “Fold increase in AK release” value [2] of the same compound?
Its value is 12 Fold.

Which results are given for `O=C(Nc1cccc(Nc2ncc(Br)c(NCCc3cnc[nH]3)n2)c1)N1CCCC1` [BX-912]?
MIC (growth inhibition) ([1]; C. albicans, planktonic): ≥ 64 µg/mL; MIC (growth inhibition) [3]: ≥ 64 µg/mL

What does the source list for `COc1ccc2c(c[n+](C)c3c4cc5c(cc4ccc23)OCO5)c1OC` [Chelerythine]?
MIC [1, 10]: 125 µg/mL; Fold increase in AK release [2]: 5 Fold

With `NCC(=O)Nc1ccc(-n2nc(C(F)(F)F)cc2-c2ccc3c(ccc4ccccc43)c2)cc1` [OSU-03012] as the compound, how does the “in vivo activity (kidney fungal burden)” value [4] read?
The value was “in vivo activity against C. albicans infection”.

What about the “antifungal activity (in words)” value ([1]; C. albicans) of the same compound?
Its value is “good antifungal activity”.

What about the MIC ([1]; Candida albicans, C. albicans, FIG. 7 legend, read-out: MIC) of the same compound?
The MIC was 3 µg/mL (≈ 6.52 µM).

And the “activity against C. albicans biofilms (in words)” value [5]?
Its value is “showed activity”.

And the “antifungal activity (in words)” value [3]?
The value was “good antifungal activity”.

What about the MIC ([3]; Cryptococcus neoformans, FIG. 7 legend) of the same compound?
The MIC was 4 µg/mL (≈ 8.69 µM).

What about the “concentration tolerated in human cells” value [6] of the same compound?
The value was 8000 ng/mL.

What about the interaction with fluconazole [7] of the same compound?
The interaction with fluconazole was “synergistic”.

And the “time-kill result of the combination” value ([7]; OSU-03012 and fluconazole 2 μg/ml each)?
The value was “fungicidal”.

Which results are given for `CO[C@H]1C[C@@H]2CC[C@@H](C)[C@@](O)(O2)C(=O)C(=O)N2CCCC[C@H]2C(=O)O[C@H]([C@H](C)C[C@@H]2CC[C@@H](O)[C@H](OC)C2)CC(=O)[C@H](C)/C=C(\C)[C@@H](O)[C@@H](OC)C(=O)[C@H](C)C[C@H](C)/C=C/C=C/C=C/1C` [Rapamycin]?
MIC [1, 11]: 100 µg/mL (≈ 109 µM); Fold increase in AK release [2]: 17 Fold

Which results are given for `CN[C@@H]1C[C@H]2O[C@@](C)([C@@H]1OC)n1c3ccccc3c3c4c(c5c6ccccc6n2c5c31)C(=O)NC4` [Staurosporine]?
MIC [1, 11]: 0.5 µg/mL (≈ 1.07 µM); Fold increase in AK release [2]: 48 Fold

Which MIC [1, 10] does the source give for `NCCNc1ncc(C(N)=O)c(Nc2cccc(C(F)(F)F)c2)n1` [Sykll] here?
The MIC was 9 µg/mL (≈ 26.4 µM).

What about the “Fold increase in AK release” value [2] of the same compound?
The value was 14 Fold.

And the “Rlm1-lacZ reporter activity induced by Calcofluor white” value [8]?
Its value is “completely abolished reporter activity”.

For `CN[C@@H]1C[C@H]2O[C@@](C)([C@@H]1OC)n1c3ccccc3c3c4c(c5c6ccccc6n2c5c31)C(=O)N[C@@H]4O` [UCN-01], which “antifungal activity (in words)” value ([1]; C. albicans) is on record?
The value was “good antifungal activity”.

And the “FIC (fractional inhibitory concentration)” value ([9]; combination with caspofungin)?
The value was 1.0.

What about the “FIC (fractional inhibitory concentration)” value ([9]; combination with fluconazole) of the same compound?
The value was 0.3.

What about the “activity against C. albicans biofilms (in words)” value [5] of the same compound?
The value was “showed activity”.

What about the “antifungal activity (in words)” value [3] of the same compound?
The value was “good antifungal activity”.

What does the source list for Herbymicin?
MIC [1, 10]: 40 µg/mL; Fold increase in AK release [2]: 127 Fold

From US8889680B2, “Treatment or prevention of fungal infections with PDK1 inhibitors” (priority 2010, dated 2014)
